Assay results as given in US20190144368A1, “Compounds and compositions for biofilm prevention” (INHIBIO AS, priority 2016, published 2019).
Values joined by “and” are separate entries in the source; they are usually repeats but may differ in a detail not shown here. Equal entries are not always repeated.

How the values were obtained:
[1] = system: E. coli 1242 and E. coli 1153; assay: Biofilm formation in microtiter plates, comparison of 1,3-cyclohexanedione and menthone; assay type: cell-based, Escherichia coli; conditions: two values, one per strain (E. coli 1242, E. coli 1153)
Description: (§1) All experiments were performed by using sterile 96-wells polystyrene microtiter plates (Nunc, Nuncleon, Roskilde, Denmark) under conditions promoting biofilm formation by the different bacterial genera. The Inhibio compound preparations of the invention; 1,3-cyclohexanedione, 1,4-cyclohexanedione, cyclopentanone, 5-ethylcyclohexane-1,3-dione and 5-methyl-1,3 cyclohexanedione 98% were solved directly in Tryptic Soy Broth (TSB) 1+1 or Liquid Microbiology Broth (LB) broth without NaCl (LB^wo/NaCl) to obtain the test concentrations, i.e. from 1 mg/ml to 10 mg/ml.
One Salmonella ser. Typhimurium (S. Typhimurium), two Salmonella ser. Agona (S. Agona) and two Escherichia coli (E. coli) isolates were used in these studies. The studies performed using 1,3-cyclohexanedione and 1,4-cyclohexanedione were done on Salmonella isolates only. The studies comparing Menthone to 1,3-cyclohexanedione were using two E. coli strains, E. coli 1242 and E. coli 1153, see FIG. 11. The Salmonella isolates were isolated from Norwegian feed factories except one S. Typhimurium strain which was a culture collection strain (ATCC 14028). The E. coli isolates were of animal origin. All strains were stored at −80° C. in BHI supplemented with 15% glycerine and were recovered on blood agar at 37.0±1.0° C. The bacterial cultures were then transferred into LB broth and incubated statically overnight at 37.0±1.0° C. to obtain an overnight working culture. […] After incubation, OD595 was measured before the plates were gently washed one time with 150 μl tap water. […] OD595 was measured in a microplate photometer (Multiscan EX) after the bound dye was dissolved using ethanol:acetone. For each strain, the result was calculated by subtracting the median OD595 of the three parallels of the control (test broth only) from the median OD595 of the three parallels of sample. Further, the averages of the Gram negative strains were calculated. Three independent experiments were performed and the average was evaluated.

Salmonella (one strain) = assay: Effect of increased temperature on 1,3-cyclohexanedione: biofilm formation after heating the solution; assay type: cell-based; conditions: 72 hours at 20 °C
Description: The experiment was performed using 1,3-cyclohexanedione at a concentration of 1 mg/ml. One strain of Salmonella was used in this study. All strains were stored at −80° C. in BHI (Difco, BD, Franklin Lakes, N.J., USA) supplemented […] with 15% glycerine (Merck KGaA, Darmstadt, Germany) and were recovered on blood agar at 37.0±1.0° C. The bacterial culture was transferred into LB broth and was incubated statically overnight at 37.0±1.0° C. to obtain an overnight working culture. 1,3-cyclohexanedione was diluted in LB wo/NaCl at a concentration of 1 mg/ml and divided into 4 tubes. The tubes were heated, for two minutes, to 80° C., 90° C., 100° C. and the last tube was not heated and included as a control. 100 μl from each tube was added to a sterile 96-wells polystyrene microtiter plates (Nunc, Nuncleon, Roskilde, Denmark) together with 30 μl bacterial culture or 30 μl LB^wo/NaCl in the case of the blank controls. The plates were incubated for 72 hours at 20° C. The plate was emptied and washed twice using 200 μl tap water in each well each time. This was followed by the addition of 140 μl 1% Crystal violet to each well and, after 30 minutes, the plate was again emptied and washed 3 times using 200 μl tap water. 140 μl etanol:acetone 70:30 was added and OD595 was measured after 10 minutes. For each strain, the result was calculated by subtracting the median OD595 of the three parallels of the control (test broth only) from the median OD595 of the three parallels of sample. At least two experiments were performed and the average was estimated.

[2] = system: Gram positive bacteria (three Staphylococcus aureus strains); assay: Biofilm formation in polystyrene microtiter plates (crystal violet, OD595), Gram positive bacteria; assay type: cell-based; conditions: one day at 37 °C
Description: as §1
Three Staphylococcus aureus strains of animal origin were used in this study. All strains were stored at −80° C. in Brain Heart Infusion Broth (BHI) (Difco, BD, Franklin Lakes, N.J., USA) supplemented with 15% glycerine (Merck KGaA, Darmstadt, Germany) and were recovered on blood agar at 37.0±1.0° C. The bacterial cultures were then transferred into TSB and were incubated statically overnight at 37.0±1.0° C. to obtain an overnight working culture. A total of 2 μl of this suspension was transferred to each 96 wells of polystyrene microtiter plates (Nunc, Nuncleon, Roskilde, Denmark) containing 198 μl TSB 1+1 with dissolved Inhibio compounds in the following concentrations: 0 mg/ml, 1 mg/ml and 10 mg/ml for 1,3-cyclohexanedione; 0 mg/ml and 10 mg/ml for 1,4-cyclohexanedione; and 0 mg/ml, 1 mg/ml, 2 mg/ml and 10 mg/ml for 5-ethylcyclohexane-1,3-dione and 5-Methyl-1,3-cyclohexanedione in the total amount of broth. Three parallels of each strain were used and the microtiter plates were incubated statically for one day, at 37±1.0° C. After incubation, OD595 was measured in a microplate photometer (Multiscan EX; Thermo Fisher Scientific Inc, Waltham, Mass., USA) before the plates were gently washed three times with 290 μl tap water. The plates were dried in room temperature before addition of 220 μl 1% crystal violet (Sigma-Aldrich, St. Louis, Mo., USA). After 30 minutes incubation in room temperature, the plates were washed three times with tap water before the addition of 220 μl ethanol:acetone (70:30 w:w) to dissolve the bound dye. The plates were incubated for 10 minutes in room temperature before OD595 was measured after the bound dye was dissolved using ethanol:acetone. For each strain, the result was calculated by subtracting the median OD595 of the three parallels of the control (test broth only) from the median OD595 of the three parallels of sample. Further, the average result of all three Gram positive strains included in the study were calculated. Three independent experiments were performed and the average was evaluated.

SMILES: O=C1CCCC(=O)C1 [1,3-cyclohexanedione]
- decrease in biofilm formation ([1]; 1 mg/ml): 46% and 70%
- decrease in biofilm formation ([1]; 10 mg/ml): 97% and 100%
- decrease in biofilm formation compared to the control (Salmonella (one strain); 1 mg/ml solution heated to 80 °C for two minutes): 38%
- decrease in biofilm formation compared to the control (Salmonella (one strain); 1 mg/ml solution heated to 90 °C for two minutes): 40%
- decrease in biofilm formation compared to the control (Salmonella (one strain); 1 mg/ml solution heated to 100 °C for two minutes): 28%
- decrease in biofilm formation compared to the control (Salmonella (one strain); 1 mg/ml unheated solution): 46%
- decrease in biofilm formation, percentage of the control ([2]; 1 mg/ml): 74%
- decrease in biofilm formation, percentage of the control ([2]; 10 mg/ml): 98%
